The subject of this data set is human osteosarcoma Saos-2 cells. Description: Cytotoxicity, CCK-8 bioassay. The note with it: read-out: IC50, cytotoxicity, 72 h incubation, CCK-8, concentrations as hydrazone-bound DOX content, mean ± SEM of three experiments. The data set is classed as cell-based.

SMILES strings stand for the structures.

One compound from PMC4240342 (Bioconjugate Chemistry, 2014) can be followed below.

`COc1cccc2c1C(=O)c1c(O)c3c(c(O)c1C2=O)C[C@@](O)(C(=O)CO)C[C@@H]3O[C@H]1C[C@H](N)[C@H](O)[C@H](C)O1` [Free DOX, Doxorubicin]: the IC50 worked out at 77 ± 9 nM.
